For 8 compounds, IC50 results are on record in US20240360134A1, “PYRAZOLOPYRIMIDINES AND THEIR USES AS PDGFR INHIBITORS” (priority 2021, published 2024).

In assay [1] the target is Tb-labeled inactive PDGFRβ (Homo sapiens (Human), UniProt P09619). The experiment in a line: biochemical. Format: binding. The conditions noted are these: read-out: PDGFR Lantha IC50.
Assay [2] has as its target His6-TEV-PDGFRβ (557-1016) (Homo sapiens (Human), UniProt P09619). The experiment in a line: PDGFRβ HTRF Assay. Format: biochemical. The conditions noted are these: 800 μM ATP, 0.5 μM TK-substrate biotin peptide, 30 min pre-incubation, 3 hours reaction; read-out: PDGFR HTRF IC50.
The target of assay [3] is VEGFR2, unphosphorylated (Homo sapiens (Human), UniProt P35968). The experiment in a line: VEGFR ADP GLO assay. Format: biochemical. The conditions noted are these: 5 nM VEGFR2, 1.2 mM ATP, 1 mg/mL Srctide, 180 min. The procedure, abridged: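 Unphosphorylated kinase (10 nM 2× solution) pre-incubated 30 min at RT with compounds (11-point, 3-fold, top 10 µM), then reacted 180 min with srctide and ATP (2×: 2 mg/mL, 2.4 mM) in HEPES pH 7.5 buffer. ADP read by luminescence. IC50 from 4-parameter fit, normalized to DMSO and 1 µM TAK-593.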
(In general: In ADP-Glo the light output rises with the ADP produced.)

Assay [4] has as its target PDGFRβ (Rattus norvegicus (Rat), UniProt Q05030). The experiment in a line: PDGFRβ Cellular Assay (PDGFRb P-Y751 HTRF, PDGF-BB stimulated A10 cells). Format: cell-based. The conditions noted are these: A10 cells, 3 hours compound, 15 ng/mL PDGFbb for 10 minutes; read-out: PDGFR Cellular IC50. In short, it runs like this:
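Rat A10 cells plated overnight were treated with compound for 3 h, stimulated with rat PDGF-BB (working stock 100 ng/mL in 10% FBS medium) for 10 min, then lysed.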
A general note: TR-FRET usually uses a lanthanide donor and a delayed reading to cut background.

Chain of His6-TEV-PDGFRβ (557-1016) (P09619 whole entry, looked up): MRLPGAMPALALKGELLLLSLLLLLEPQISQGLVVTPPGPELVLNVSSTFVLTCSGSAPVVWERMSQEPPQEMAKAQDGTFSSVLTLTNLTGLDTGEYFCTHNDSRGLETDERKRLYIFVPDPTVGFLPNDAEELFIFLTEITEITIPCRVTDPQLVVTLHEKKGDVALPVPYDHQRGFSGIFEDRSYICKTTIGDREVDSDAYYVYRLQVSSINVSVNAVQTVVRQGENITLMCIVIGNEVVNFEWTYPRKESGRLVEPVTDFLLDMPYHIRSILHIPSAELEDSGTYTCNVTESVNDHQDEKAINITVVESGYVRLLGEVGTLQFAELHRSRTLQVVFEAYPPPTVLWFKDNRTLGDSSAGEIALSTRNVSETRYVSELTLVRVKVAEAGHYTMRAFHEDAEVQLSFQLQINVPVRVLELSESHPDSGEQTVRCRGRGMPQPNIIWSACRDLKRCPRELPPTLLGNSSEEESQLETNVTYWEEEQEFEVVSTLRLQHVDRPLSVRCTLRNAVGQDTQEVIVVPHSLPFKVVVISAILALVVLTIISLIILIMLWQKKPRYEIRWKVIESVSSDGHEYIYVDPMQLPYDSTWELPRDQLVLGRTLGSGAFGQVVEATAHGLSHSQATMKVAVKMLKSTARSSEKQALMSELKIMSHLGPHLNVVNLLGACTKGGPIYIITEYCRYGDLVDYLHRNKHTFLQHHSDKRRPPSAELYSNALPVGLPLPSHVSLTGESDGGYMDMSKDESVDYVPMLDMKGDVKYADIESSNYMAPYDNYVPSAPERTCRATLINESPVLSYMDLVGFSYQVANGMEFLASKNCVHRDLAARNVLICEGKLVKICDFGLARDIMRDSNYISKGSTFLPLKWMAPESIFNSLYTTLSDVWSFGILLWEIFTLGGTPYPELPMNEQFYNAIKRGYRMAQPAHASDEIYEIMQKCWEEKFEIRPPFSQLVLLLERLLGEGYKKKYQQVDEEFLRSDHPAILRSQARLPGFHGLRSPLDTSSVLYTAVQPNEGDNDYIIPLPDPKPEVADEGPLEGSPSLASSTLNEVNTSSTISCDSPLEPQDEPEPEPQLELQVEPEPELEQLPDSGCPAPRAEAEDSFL
Chain of Tb-labeled inactive PDGFRβ (P09619 whole entry, looked up): as above
Chain of PDGFRβ (Q05030 whole entry, looked up): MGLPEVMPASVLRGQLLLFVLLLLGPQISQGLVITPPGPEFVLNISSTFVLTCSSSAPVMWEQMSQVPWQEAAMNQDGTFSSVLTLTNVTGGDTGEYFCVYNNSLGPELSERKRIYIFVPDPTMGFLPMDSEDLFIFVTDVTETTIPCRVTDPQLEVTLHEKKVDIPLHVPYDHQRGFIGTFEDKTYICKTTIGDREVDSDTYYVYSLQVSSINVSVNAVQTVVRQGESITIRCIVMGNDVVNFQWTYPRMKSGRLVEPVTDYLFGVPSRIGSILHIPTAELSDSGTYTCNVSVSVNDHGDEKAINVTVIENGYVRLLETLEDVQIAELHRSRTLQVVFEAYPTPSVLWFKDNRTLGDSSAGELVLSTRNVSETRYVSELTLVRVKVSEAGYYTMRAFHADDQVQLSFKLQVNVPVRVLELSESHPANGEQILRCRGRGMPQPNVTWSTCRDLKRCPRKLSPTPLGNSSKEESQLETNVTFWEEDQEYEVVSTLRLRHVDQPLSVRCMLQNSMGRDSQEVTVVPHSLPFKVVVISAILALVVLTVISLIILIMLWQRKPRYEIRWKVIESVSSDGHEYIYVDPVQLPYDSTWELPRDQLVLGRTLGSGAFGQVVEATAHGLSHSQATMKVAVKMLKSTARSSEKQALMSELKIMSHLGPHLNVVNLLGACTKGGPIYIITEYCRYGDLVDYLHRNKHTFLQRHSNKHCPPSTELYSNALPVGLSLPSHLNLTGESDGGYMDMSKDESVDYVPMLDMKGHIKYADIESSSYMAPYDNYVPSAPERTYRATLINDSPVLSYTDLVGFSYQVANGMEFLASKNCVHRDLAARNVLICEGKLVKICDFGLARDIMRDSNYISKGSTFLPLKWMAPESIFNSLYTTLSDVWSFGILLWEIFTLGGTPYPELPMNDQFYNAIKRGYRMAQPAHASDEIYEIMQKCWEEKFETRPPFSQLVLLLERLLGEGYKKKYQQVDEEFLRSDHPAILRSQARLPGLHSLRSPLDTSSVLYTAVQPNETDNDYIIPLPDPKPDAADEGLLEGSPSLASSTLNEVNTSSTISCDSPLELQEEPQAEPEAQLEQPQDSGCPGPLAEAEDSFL
Chain of VEGFR2, unphosphorylated (P35968 whole entry, looked up): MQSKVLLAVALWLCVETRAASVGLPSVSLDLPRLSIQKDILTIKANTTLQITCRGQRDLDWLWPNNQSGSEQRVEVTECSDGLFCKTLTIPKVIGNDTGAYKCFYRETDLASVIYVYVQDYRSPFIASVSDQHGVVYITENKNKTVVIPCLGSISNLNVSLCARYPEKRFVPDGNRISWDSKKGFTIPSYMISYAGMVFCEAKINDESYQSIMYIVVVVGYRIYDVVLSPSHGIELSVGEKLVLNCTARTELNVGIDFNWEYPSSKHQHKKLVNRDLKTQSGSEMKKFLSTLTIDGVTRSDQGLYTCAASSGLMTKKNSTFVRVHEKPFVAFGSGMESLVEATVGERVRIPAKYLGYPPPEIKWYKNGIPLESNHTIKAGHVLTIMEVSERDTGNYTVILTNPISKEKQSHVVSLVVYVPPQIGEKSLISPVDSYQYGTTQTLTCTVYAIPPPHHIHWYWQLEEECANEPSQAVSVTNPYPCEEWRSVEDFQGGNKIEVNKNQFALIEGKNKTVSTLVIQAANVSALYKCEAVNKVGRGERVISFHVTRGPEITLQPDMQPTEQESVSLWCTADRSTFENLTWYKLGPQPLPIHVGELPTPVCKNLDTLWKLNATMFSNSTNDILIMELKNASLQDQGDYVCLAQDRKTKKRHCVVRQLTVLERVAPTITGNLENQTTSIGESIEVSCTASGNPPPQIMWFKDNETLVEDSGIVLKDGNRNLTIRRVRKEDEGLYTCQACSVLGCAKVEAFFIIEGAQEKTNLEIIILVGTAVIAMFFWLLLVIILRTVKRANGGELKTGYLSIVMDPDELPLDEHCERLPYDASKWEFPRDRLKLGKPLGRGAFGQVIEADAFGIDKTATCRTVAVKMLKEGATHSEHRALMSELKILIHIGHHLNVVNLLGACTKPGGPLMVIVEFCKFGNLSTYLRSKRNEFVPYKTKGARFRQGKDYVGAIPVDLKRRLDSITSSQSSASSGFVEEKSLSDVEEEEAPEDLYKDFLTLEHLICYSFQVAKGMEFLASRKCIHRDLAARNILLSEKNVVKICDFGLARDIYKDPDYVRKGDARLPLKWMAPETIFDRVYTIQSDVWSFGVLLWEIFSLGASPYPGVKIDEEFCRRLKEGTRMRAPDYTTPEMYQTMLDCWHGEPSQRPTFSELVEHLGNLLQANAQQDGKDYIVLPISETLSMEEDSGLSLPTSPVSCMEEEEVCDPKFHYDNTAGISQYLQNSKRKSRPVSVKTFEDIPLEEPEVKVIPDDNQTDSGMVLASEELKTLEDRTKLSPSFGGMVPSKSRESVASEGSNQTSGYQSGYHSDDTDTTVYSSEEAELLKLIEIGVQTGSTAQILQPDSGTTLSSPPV

Broadly, the IC50 is the point on the concentration scale where inhibition reaches its midpoint. As for `COCCN(CCNC(=O)c1cnc(C)c(Nc2nn(C)c3nc(Nc4cnn(C)c4)ncc23)c1)C1CCCC1` [Example 95, N-(2-(cyclopentyl(2-methoxyethyl)amino)ethyl)-6-methyl-5-((1-methyl-6-((1-methyl-1H-pyrazol-4-yl)amino)-1H-pyrazolo[3,4-d]pyrimidin-3-yl)amino)nicotinamide], the IC50 in assay [1] is 3.4 nM; in assay [2], 0.53 nM; in assay [3], over 7500 nM; in assay [4], 9.9 nM.
Consider “2-(3,3-dimethylazetidin-1-yl)-N-(6-methyl-5-((1-methyl-6-((1-methyl-1H-imidazol-4-yl)amino)-1H-pyrazolo[3,4-d]pyrimidin-3-yl)amino)pyridin-3-yl)acetamide [Example 141]”, for which the half-maximal inhibitory concentration (IC50) in assay [1] is 12.5 nM; in assay [2], 1.4 nM; in assay [3], over 7500 nM; in assay [4], 9.4 nM.
With `COC1CN(CC(=O)Nc2cnc(C)c(Nc3nn(C)c4nc(Nc5cnn(C)c5)ncc34)c2)C1` [Example 137, 2-(3-methoxyazetidin-1-yl)-N-(6-methyl-5-((1-methyl-6-((1-methyl-1H-pyrazol-4-yl)amino)-1H-pyrazolo[3,4-d]pyrimidin-3-yl)amino)pyridin-3-yl)acetamide], the IC50 in assay [1] was 4.5 nM; in assay [2], 0.49 nM; in assay [3], over 7500 nM; in assay [4], 20.9 nM.
Take `Cc1ncc(C(=O)NCCN2CCCC2(C)C)cc1Nc1nn(C)c2nc(Nc3cnn(C)n3)ncc12` [Example 40, N-(2-(2,2-dimethylpyrrolidin-1-yl)ethyl)-6-methyl-5-((1-methyl-6-((2-methyl-2H-1,2,3-triazol-4-yl)amino)-1H-pyrazolo[3,4-d]pyrimidin-3-yl)amino)nicotinamide]: the IC50 in assay [1] is 13 nM; in assay [2], 1.22 nM; in assay [3], over 7500 nM; in assay [4], 14.1 nM.
Regarding `Cn1nc(Nc2cc(C(=O)NCCN3CCCC3(C)C)ccc2F)c2cnc(Nc3cncnc3)nc21` [Example 51, N-(2-(2,2-dimethylpyrrolidin-1-yl)ethyl)-4-fluoro-3-((1-methyl-6-(pyrimidin-5-ylamino)-1H-pyrazolo[3,4-d]pyrimidin-3-yl)amino)benzamide], the concentration for half-maximal inhibition (IC50) was 9 nM in assay [1], 0.87 nM in assay [2], over 7500 nM in assay [3] and 17.2 nM in assay [4].
As for `Cc1ncc(NC(=O)CN2CC[C@H](C)C2)cc1Nc1nn(C)c2nc(Nc3cnn(C)c3)ncc12` [Example 140, (S)—N-(6-methyl-5-((1-methyl-6-((1-methyl-1H-pyrazol-4-yl)amino)-1H-pyrazolo[3,4-d]pyrimidin-3-yl)amino)pyridin-3-yl)-2-(3-methylpyrrolidin-1-yl)acetamide], the IC50 in assay [1] is 1.6 nM; in assay [2] it was 0.23 nM; in assay [3], over 7500 nM; in assay [4], 2.2 nM.
For `COCCn1cc(Nc2ncc3c(Nc4cc(C(=O)NCCN5CCCC56CCC6)cnc4C)nn(C)c3n2)cn1` [Example 147, N-(2-(5-azaspiro[3.4]octan-5-yl)ethyl)-5-((6-((1-(2-methoxyethyl)-1H-pyrazol-4-yl)amino)-1-methyl-1H-pyrazolo[3,4-d]pyrimidin-3-yl)amino)-6-methylnicotinamide], in that order: 2.1 nM, 0.38 nM, 2670 nM and 14.7 nM.
Regarding `Cc1ncc(C(=O)NCCN2CCCC23CCC3)cc1Nc1nn(C)c2nc(Nc3cnn(C)c3)ncc12` [Example 151, N-(2-(5-azaspiro[3.4]octan-5-yl)ethyl)-6-methyl-5-((1-methyl-6-((1-methyl-1H-pyrazol-4-yl)amino)-1H-pyrazolo[3,4-d]pyrimidin-3-yl)amino)nicotinamide], the IC50 is 1.7 nM in assay [1], 0.29 nM in assay [2], 2960 nM in assay [3] and 4.8 nM in assay [4].
